These results are taken from patent US20120022142A1, “RNA Interference Mediated Inhibition of Signal Transducer and Activator of Transcription 1 (STAT1) Gene Expression Using Short Interfering Nucleic Acid (siNA)” (Merck Sharp & Dohme Corp., priority 2009, published 2012).

In one series the test system is STAT1 protein. Description: STAT1 Western Blot in transfected A549 cells. It counts as cell-based, human. The note with it: % protein remaining (STAT1α and STAT1β together), A549, 30 nM; for Protein 24 hr: 24 hr post-transfection; for Protein 48 hr: 48 hr post-transfection; for Protein 72 hr: 72 hr post-transfection. On the procedure: A549 cells were plated in 6-well plates at final counts of 70,000 cells/well in 2 ml of complete growth media (Ham's F12, Cellgro Cat# 10-080-CV+10% FBS). Transfection was performed using 2.5 uL of RNAiMax (Invitrogen Cat# 13778-150) per well. Final concentration of siNAs was 30, 3, 0.3, 0.03, 0.003, and 0.0003 nM done in duplicate. The siNAs were incubated for 24-72 hours. The duplicate samples were pooled to prepare protein lysates and RNA using the “PARIS” Protein and RNA Isolation System from Ambion, Cat# 1921. The total protein in the lysates was measured using a Bradford Dye Reagent (Bio-Rad, Cat# 500-0205).SDS-PAGE/Western Blotting was performed on the on the protein samples and RT-PCR on the RNA samples.
The protein source for the Western Blot experiments were from transfection of A549 cells in a 6 well plate, as described above.
Protein samples were diluted 1:1 in 2× Laemmli buffer with 5% β-mercapto-ethanol and incubated at 95° C. for 5 minutes. 10 ug of protein was loaded in each lane of 7.5% Tris-HCl gel. One lane was designated for MagicMark Protein Standard (Invitrogen # LC5602). Another lane was designated for a Precision Plus Protein Standard (Bio-Rad, Cat# 161-0374). The gel was run at 100V for approximately 2 hours. Protein was transferred to a PVDF membrane at 100V for 60 minutes. Once the transfer was finished, the membrane was blocked in 1% Casein in PBS (BioRad Cat#161-0783) for 1 hour on a plate rocker at room temperature followed by the overnight incubation at 4° C. with STAT1 primary antibody (Clontech, Cat# 610185) diluted 1:500 in 1% Casein in PBS. On the next day, the blot was washed 4×5 minutes in PBST (0.1% Tween-20 in PBS) solution and incubated for 30 minutes at room temperature with goat anti-mouse secondary antibody (Pierce Cat #3 31430) diluted 1:20,000 in 1% Casein in PBS. Then, the blot was washed 4×5 minutes with PBST, rinsed with PBS, and incubated for 1 minute with ECL Western Blotting Substrate (Pierce Biotechnology, Cat# 32106). The bands were visualized on the Bio-Rad VersaDoc Imager.
The level of protein was quantified using the Bio-Rad VersaDoc Imager according to the protocols of that piece of equipment. A pixel count was performed in each lane using an area of identical size. Each sample was then compared to the appropriate control treated sample and converted to a percent of protein remaining compared to control.
An assessment of the level of mRNA at each timepoint was also made and protein samples from the treated cells were used in Western blots with an α-STAT1 antibody. (Clontech, Cat# 610185) and anti-Tubulin Ab (Sigma # T6199) in human A549 cells. Cells were transfected 24, 48 or 72 hours before harvesting total protein and the final concentration of siNAs was 30 nM. Lanes were loaded with 10 ug of total protein. Quantification was done of both the STAT1α and the STAT1β proteins together. All the siNAs tested reduced STAT1 protein at each of the tested timepoints, with the highest degree of protein reduction being observed at 72 hours post-transfection.
On the technique in general: In western blotting, separated proteins are transferred to a membrane and probed.

The next series concerns STAT3 mRNA. Description: Effect of STAT1 siRNAs on expression of STAT3 mRNA in A549 cells (quantitative RT-PCR). It counts as cell-based, human. The conditions noted are these: 1 nM siRNA, normalized to GAPDH. The text has this: A series of probes and primers were used to detect the various mRNA transcripts of the genes of β-Actin (human cell line only), and of STAT1 and GAPDH in mouse and human cell lines. All Taqman probes and primers for the experiments here-in described were supplied as pre-validated sets by Applied Biosystems, Inc. (see Table 2).
The levels of expression of STAT3 were normalized to the level of GAPDH. There was no significant effect (p>0.05) of treatment with any of the lead STAT1 siRNAs on the expression human or mouse STAT3 mRNA at 1 nM (10 to 100 times the IC50s of the siRNAs).

[invAb] = inverted abasic unit; m = 2'-O-methyl; r = 2'-OH (RNA); f = 2'-fluoro

For the substance “25351-DC: STAT1 siNA duplex, human target site 2249; modified strands SEQ ID NO: 39 and 40 (chain 1 CCUACACGAAGAAAGAACUTT; chain 2 AGUUCUUUCUUCGUGUAGGUU; chain 1: DNA at AGT, 2'-fluoro at CU, [invAb] at 5' end, 3' end, backbone not given here; chain 2: sugars from the 5' end rrrfffffffffmfmfmmmmm, backbone not given here)”, in the series with STAT1 protein, the “Protein 24 hr” value is recorded as 87%, the “Protein 48 hr” value was 48% and the “Protein 72 hr” value is 20%. Moreover, the “STAT3 % KD at 1 nM” value with STAT3 mRNA came to 8%.
In the same order, the values of “25368-DC: STAT1 siNA duplex, human target site 782; modified strands SEQ ID NO: 73 and 74 (chain 1 GUAAAGUCAGAAAUGUGAATT; chain 2 UUCACAUUUCUGACUUUACUU; chain 1: DNA at AGT, 2'-fluoro at CU, [invAb] at 5' end, 3' end, backbone not given here; chain 2: sugars from the 5' end rrrmfmfffffmmffffmfmm, backbone not given here)” are 80%, 54%, 20% and −2%.
As for “25369-DC: STAT1 siNA duplex, human target site 602; modified strands SEQ ID NO: 75 and 76 (chain 1 GGAAAAGCAAGCGUAAUCUTT; chain 2 AGAUUACGCUUGCUUUUCCUU; chain 1: DNA at AGT, 2'-fluoro at CU, [invAb] at 5' end, 3' end, backbone not given here; chain 2: sugars from the 5' end rrrffmfmfffmfffffffmm, backbone not given here)”, in the series on STAT1 protein, the “Protein 24 hr” value amounted to 85%, the “Protein 48 hr” value was found to be 58% and the “Protein 72 hr” value is given as 38%. Besides, in the series on STAT3 mRNA, the “STAT3 % KD at 1 nM” value is −2%.
Turning to “25367-DC: STAT1 siNA duplex, human target site 966; modified strands SEQ ID NO: 71 and 72 (chain 1 GCUUGACAAUAAGAGAAAGTT; chain 2 CUUUCUCUUAUUGUCAAGCUU; chain 1: DNA at AGT, 2'-fluoro at CU, [invAb] at 5' end, 3' end, backbone not given here; chain 2: sugars from the 5' end rrrffffffmffmffmmmfmm, backbone not given here)”, in the series with STAT1 protein, the “Protein 24 hr” value was found to be 83%, the “Protein 48 hr” value amounted to 53% and the “Protein 72 hr” value was 30%. Moreover, the “STAT3 % KD at 1 nM” value with STAT3 mRNA worked out at 12%.
In the same order, the values of “25372-DC: STAT1 siNA duplex, human target site 968; modified strands SEQ ID NO: 81 and 82 (chain 1 UUGACAAUAAGAGAAAGGATT; chain 2 UCCUUUCUCUUAUUGUCAAUU; chain 1: DNA at AGT, 2'-fluoro at CU, [invAb] at 5' end, 3' end, backbone not given here; chain 2: sugars from the 5' end rrrffffffffmffmffmmmm, backbone not given here)” are 76%, 54%, 29% and 3%.
